Earlier results, collected in publication PMC10535842, “Novel Thiazole-Based SIRT2 Inhibitors Discovered via Molecular Modelling Studies and Enzymatic Assays” (Pharmaceuticals, 2023).
Where “and” joins values, the source holds several entries; their conditions need not be identical. Equal values may be shown once.

System: SIRT2
Settings: substrate RHKK(Ac)-AMC; read-out: SIRT2 IC50 (series B, compounds 27-111); cited from earlier work
In the case of `COc1ccc2ccccc2c1Cn1cnc2sc3c(c2c1=O)CCC(NCc1ccco1)C3` (stereo not shown) [Compound 27], the IC50 is given as 5.24 µM.
In the case of `O=c1c2c3c(sc2ncn1Cc1cccc2ccccc12)CC(NCc1ccco1)CC3` (stereo not shown) [Compound 28], the IC50 is listed as 7.61 µM.
In the case of `O=c1c2c3c(sc2ncn1Cc1ccc2ccccc2c1)CC(NCc1ccco1)CC3` (stereo not shown) [Compound 29], the IC50 is listed as 11.7 µM.
For `O=c1c2c3c(sc2ncn1Cc1cccc2cccnc12)CC(NCc1ccco1)CC3` (stereo not shown) [Compound 30], the IC50 is given as 4.16 µM.
For `COc1ccc2ccccc2c1Cn1cnc2sc3c(c2c1=O)CCC(NCc1c(C)nn(C)c1C)C3` (stereo not shown) [Compound 31], the IC50 is listed as 5.11 µM.
For `Cc1nn(C)c(C)c1CNC1CCc2c(sc3ncn(Cc4cccc5ccccc45)c(=O)c23)C1` (stereo not shown) [Compound 32], the IC50 is given as 4.2 µM.
For `Cc1nn(C)c(C)c1CNC1CCc2c(sc3ncn(Cc4ccc5ccccc5c4)c(=O)c23)C1` (stereo not shown) [Compound 33], the IC50 is listed as 7.43 µM.
For `COc1ccc2ccccc2c1Cn1cnc2sc3c(c2c1=O)CCC(NCc1c(C)noc1C)C3` (stereo not shown) [Compound 34], the IC50 is listed as 4 µM.
For `Cc1noc(C)c1CNC1CCc2c(sc3ncn(Cc4cccc5ccccc45)c(=O)c23)C1` (stereo not shown) [Compound 35], the IC50 is listed as 1.85 µM.
In the case of `COc1ccc(Cn2cnc3sc4c(c3c2=O)CCC(NCc2c(C)noc2C)C4)c2ccccc12` (stereo not shown) [Compound 36], the IC50 is given as < 1 µM.
For `Cc1noc(C)c1CNC1CCc2c(sc3ncn(Cc4cccc5cccnc45)c(=O)c23)C1` (stereo not shown) [Compound 37], the IC50 is given as 6.94 µM.
For `COc1ccc2ccccc2c1Cn1cnc2sc3c(c2c1=O)CCC(NCc1cccs1)C3` (stereo not shown) [Compound 38], the IC50 is listed as 6.03 µM.
In the case of `O=c1c2c3c(sc2ncn1Cc1cccc2cccnc12)CC(NCc1cccs1)CC3` (stereo not shown) [Compound 39], the IC50 is given as 2.56 µM.
For `COc1ccc2ccccc2c1Cn1cnc2sc3c(c2c1=O)CCC(NCc1ccccc1)C3` (stereo not shown) [Compound 40], the IC50 is given as 21.1 µM.
In the case of `O=c1c2c3c(sc2ncn1Cc1ccc2ccccc2c1)CC(NCc1ccccc1)CC3` (stereo not shown) [Compound 41], the IC50 is listed as 5.45 µM.
For `O=c1c2c3c(sc2ncn1Cc1cccc2cccnc12)CC(NCc1ccccc1)CC3` (stereo not shown) [Compound 42], the IC50 is listed as 2.5 µM.
For `COc1ccccc1Cn1cnc2sc3c(c2c1=O)CCC(NCc1ccccc1)C3` (stereo not shown) [Compound 43], the IC50 is listed as 10.4 µM.
In the case of `COc1ccc2ccccc2c1Cn1cnc2sc3c(c2c1=O)CCC(NCc1cccc(F)c1)C3` (stereo not shown) [Compound 44], the IC50 is given as 4.07 µM.
For `O=c1c2c3c(sc2ncn1Cc1cccc2cccnc12)CC(NCc1cccc(F)c1)CC3` (stereo not shown) [Compound 45], the IC50 is given as 1.72 µM.
For `O=c1c2c3c(sc2ncn1Cc1cccc2cccnc12)CC(NCc1cccc(Cl)c1)CC3` (stereo not shown) [Compound 46], the IC50 is listed as 2.84 µM.
For `O=c1c2c3c(sc2ncn1Cc1cccc2cccnc12)CC(NCc1ccc(Cl)cc1)CC3` (stereo not shown) [Compound 47], the IC50 is listed as 1.27 µM.
In the case of `O=c1c2c3c(sc2ncn1Cc1cccc2cccnc12)CC(NCc1ccccc1Cl)CC3` (stereo not shown) [Compound 48], the IC50 is given as 3.8 µM.
In the case of `COc1ccccc1CNC1CCc2c(sc3ncn(Cc4c(OC)ccc5ccccc45)c(=O)c23)C1` (stereo not shown) [Compound 50], the IC50 is given as 2.24 µM.
For `COc1ccccc1CNC1CCc2c(sc3ncn(Cc4ccc5ccccc5c4)c(=O)c23)C1` (stereo not shown) [Compound 51], the IC50 is listed as 4.22 µM.
In the case of `COc1ccccc1CNC1CCc2c(sc3ncn(Cc4cccc5cccnc45)c(=O)c23)C1` (stereo not shown) [Compound 52], the IC50 is listed as 5.61 µM.
For `COc1ccccc1CNC1CCc2c(sc3ncn(Cc4ccccc4OC)c(=O)c23)C1` (stereo not shown) [Compound 53], the IC50 is listed as 9.59 µM.
In the case of `COc1cccc(CNC2CCc3c(sc4ncn(Cc5c(OC)ccc6ccccc56)c(=O)c34)C2)c1` (stereo not shown) [Compound 54], the IC50 is given as 1.9 µM.
For `COc1cccc(CNC2CCc3c(sc4ncn(Cc5ccccc5OC)c(=O)c34)C2)c1` (stereo not shown) [Compound 55], the IC50 is listed as 13.4 µM.
For `COc1ccc(CNC2CCc3c(sc4ncn(Cc5c(OC)ccc6ccccc56)c(=O)c34)C2)cc1` (stereo not shown) [Compound 56], the IC50 is listed as < 1 µM and 0.65 µM.
For `COc1ccc(CNC2CCc3c(sc4ncn(Cc5cccc6ccccc56)c(=O)c34)C2)cc1` (stereo not shown) [Compound 57], the IC50 is given as 3.2 µM.
In the case of `COc1ccc(CNC2CCc3c(sc4ncn(Cc5ccc6ccccc6c5)c(=O)c34)C2)cc1` (stereo not shown) [Compound 58], the IC50 is listed as 3.82 µM.
In the case of `COc1ccc(CNC2CCc3c(sc4ncn(Cc5cccc6cccnc56)c(=O)c34)C2)cc1` (stereo not shown) [Compound 59], the IC50 is given as 1.83 µM.
In the case of `COc1ccc(NC2CCc3c(sc4ncn(Cc5cccc6cccnc56)c(=O)c34)C2)cc1` (stereo not shown) [Compound 60], the IC50 is given as 2.48 µM.
For `Cc1ccc(NC2CCc3c(sc4ncn(Cc5cccc6cccnc56)c(=O)c34)C2)cc1` (stereo not shown) [Compound 61], the IC50 is listed as 4.25 µM.
In the case of `O=c1c2c3c(sc2ncn1Cc1cccc2cccnc12)CC(Nc1ccc(F)cc1)CC3` (stereo not shown) [Compound 62], the IC50 is listed as < 1 µM and 0.97 µM.
For `COc1ccc2ccccc2c1Cn1cnc2sc3c(c2c1=O)CCC(NCc1cccnc1)C3` (stereo not shown) [Compound 63], the IC50 is listed as 1.45 µM.
For `O=c1c2c3c(sc2ncn1Cc1cccc2ccccc12)CC(NCc1cccnc1)CC3` (stereo not shown) [Compound 64], the IC50 is listed as 2.99 µM.
For `O=c1c2c3c(sc2ncn1Cc1cccc2cccnc12)CC(NCc1cccnc1)CC3` (stereo not shown) [Compound 65], the IC50 is given as 2.92 µM.
For `COc1ccc2ccccc2c1Cn1cnc2sc3c(c2c1=O)CCC(NCc1ccncc1)C3` (stereo not shown) [Compound 66], the IC50 is given as 1.2 µM.
For `O=c1c2c3c(sc2ncn1Cc1cccc2ccccc12)CC(NCc1ccncc1)CC3` (stereo not shown) [Compound 67], the IC50 is listed as 3.58 µM.
In the case of `O=c1c2c3c(sc2ncn1Cc1ccc2ccccc2c1)CC(NCc1ccncc1)CC3` (stereo not shown) [Compound 68], the IC50 is listed as 3.14 µM.
In the case of `O=c1c2c3c(sc2ncn1Cc1cccc2cccnc12)CC(NCc1ccncc1)CC3` (stereo not shown) [Compound 69], the IC50 is listed as 3.68 µM.
For `COc1ccc2ccccc2c1Cn1cnc2sc3c(c2c1=O)CCC(NCc1ccccn1)C3` (stereo not shown) [Compound 70], the IC50 is given as 3.12 µM.
In the case of `O=c1c2c3c(sc2ncn1Cc1cccc2ccccc12)CC(NCc1ccccn1)CC3` (stereo not shown) [Compound 71], the IC50 is given as 7.68 µM.
In the case of `O=c1c2c3c(sc2ncn1Cc1ccc2ccccc2c1)CC(NCc1ccccn1)CC3` (stereo not shown) [Compound 72], the IC50 is listed as 8.67 µM.
In the case of `O=c1c2c3c(sc2ncn1Cc1cccc2cccnc12)CC(NCc1ccccn1)CC3` (stereo not shown) [Compound 73], the IC50 is given as 2.61 µM.
In the case of `COc1ccc(CNC2CCc3c(sc4ncn(Cc5c(OC)ccc6ccccc56)c(=O)c34)C2)cn1` (stereo not shown) [Compound 74], the IC50 is given as 1.9 µM.
In the case of `COc1ccc(CNC2CCc3c(sc4ncn(Cc5cccc6ccccc56)c(=O)c34)C2)cn1` (stereo not shown) [Compound 75], the IC50 is given as 7.59 µM.
For `COc1ccc(CNC2CCc3c(sc4ncn(Cc5ccc6ccccc6c5)c(=O)c34)C2)cn1` (stereo not shown) [Compound 76], the IC50 is given as 10.2 µM.
For `COc1ccc(CNC2CCc3c(sc4ncn(Cc5cccc6cccnc56)c(=O)c34)C2)cn1` (stereo not shown) [Compound 77], the IC50 is listed as 2.65 µM.
In the case of `COc1ccc2ccccc2c1Cn1cnc2sc3c(c2c1=O)CCC(NCCc1cccnc1)C3` (stereo not shown) [Compound 78], the IC50 is listed as 10.3 µM.
For `O=c1c2c3c(sc2ncn1Cc1cccc2ccccc12)CC(NCCc1cccnc1)CC3` (stereo not shown) [Compound 79], the IC50 is listed as 9.57 µM.
In the case of `O=c1c2c3c(sc2ncn1Cc1ccc2ccccc2c1)CC(NCCc1cccnc1)CC3` (stereo not shown) [Compound 80], the IC50 is listed as 8.68 µM.
In the case of `COc1ccc2ccccc2c1Cn1cnc2sc3c(c2c1=O)CCC(NCCc1ccncc1)C3` (stereo not shown) [Compound 81], the IC50 is listed as 2.75 µM.
For `O=c1c2c3c(sc2ncn1Cc1cccc2ccccc12)CC(NCCc1ccncc1)CC3` (stereo not shown) [Compound 82], the IC50 is given as 5.79 µM.
For `O=c1c2c3c(sc2ncn1Cc1ccc2ccccc2c1)CC(NCCc1ccncc1)CC3` (stereo not shown) [Compound 83], the IC50 is listed as 9.6 µM.
In the case of `O=c1c2c3c(sc2ncn1Cc1cccc2ccccc12)CC(NCc1cncnc1)CC3` (stereo not shown) [Compound 84], the IC50 is given as 6.45 µM.
In the case of `O=c1c2c3c(sc2ncn1Cc1ccc2ccccc2c1)CC(NCc1cncnc1)CC3` (stereo not shown) [Compound 85], the IC50 is listed as 5.3 µM.
In the case of `COc1ccc2ccccc2c1Cn1cnc2sc3c(c2c1=O)CCC(NCC1CCCCC1)C3` (stereo not shown) [Compound 86], the IC50 is listed as 1.65 µM.
In the case of `O=c1c2c3c(sc2ncn1Cc1ccc2ccccc2c1)CC(NCC1CCCCC1)CC3` (stereo not shown) [Compound 87], the IC50 is listed as 5.53 µM.
In the case of `O=c1c2c3c(sc2ncn1Cc1cccc2cccnc12)CC(NCC1CCCCC1)CC3` (stereo not shown) [Compound 88], the IC50 is given as 2.43 µM.
For `COc1ccccc1Cn1cnc2sc3c(c2c1=O)CCC(NCC1CCCCC1)C3` (stereo not shown) [Compound 89], the IC50 is given as 9.18 µM.
For `COc1ccc2ccccc2c1Cn1cnc2sc3c(c2c1=O)CCC(NCC1CCCO1)C3` (stereo not shown) [Compound 90], the IC50 is listed as 1.9 µM.
In the case of `O=c1c2c3c(sc2ncn1Cc1cccc2ccccc12)CC(NCC1CCCO1)CC3` (stereo not shown) [Compound 91], the IC50 is given as 12.5 µM.
For `O=c1c2c3c(sc2ncn1Cc1ccc2ccccc2c1)CC(NCC1CCCO1)CC3` (stereo not shown) [Compound 92], the IC50 is listed as 13.1 µM.
For `COc1ccc2ccccc2c1Cn1cnc2sc3c(c2c1=O)CCC(NCC1CCOC1)C3` (stereo not shown) [Compound 93], the IC50 is given as 6.03 µM.
For `O=c1c2c3c(sc2ncn1Cc1cccc(-c2ccccc2)c1)CC(NCC1CCOC1)CC3` (stereo not shown) [Compound 94], the IC50 is given as 2.58 µM.
For `O=c1c2c3c(sc2ncn1Cc1cccc2cccnc12)CC(NCCC1CCCCC1)CC3` (stereo not shown) [Compound 95], the IC50 is given as 5.85 µM.
In the case of `O=c1c2c3c(sc2ncn1Cc1cccc(-c2ccccc2)c1)CC(NCCC1CCCCC1)CC3` (stereo not shown) [Compound 96], the IC50 is given as 3.74 µM.
For `COc1ccc2ccccc2c1Cn1cnc2sc3c(c2c1=O)CCC(NC1CCCC1)C3` (stereo not shown) [Compound 97], the IC50 is given as 1.18 µM.
In the case of `COc1ccc(Cn2cnc3sc4c(c3c2=O)CCC(NC2CCCC2)C4)c2ccccc12` (stereo not shown) [Compound 98], the IC50 is given as 0.73 µM and < 1 µM.
For `O=c1c2c3c(sc2ncn1Cc1cccc(-c2ccccc2)c1)CC(NC1CCCC1)CC3` (stereo not shown) [Compound 99], the IC50 is listed as 1.52 µM.
In the case of `COc1ccc2ccccc2c1Cn1cnc2sc3c(c2c1=O)CCC(NC1CCOCC1)C3` (stereo not shown) [Compound 100], the IC50 is given as 1.11 µM.
For `COc1ccc(Cn2cnc3sc4c(c3c2=O)CCC(NC2CCOCC2)C4)c2ccccc12` (stereo not shown) [Compound 101], the IC50 is listed as 5.06 µM.
In the case of `O=c1c2c3c(sc2ncn1Cc1cccc(-c2ccccc2)c1)CC(NC1CCOCC1)CC3` (stereo not shown) [Compound 102], the IC50 is listed as 1.74 µM.
For `O=c1c2c3c(sc2ncn1Cc1cccc(-c2ccccc2)c1)CC(NCCN1CCOCC1)CC3` (stereo not shown) [Compound 103], the IC50 is given as 3.14 µM.
For `O=c1c2c3c(sc2ncn1Cc1cccc(-c2ccccc2)c1)CC(NCCN1CCCC1)CC3` (stereo not shown) [Compound 104], the IC50 is listed as 3.78 µM.
For `O=c1c2c3c(sc2ncn1Cc1cccc2cccnc12)CC(NC1CCc2ccccc21)CC3` (stereo not shown) [Compound 105], the IC50 is listed as 3.09 µM.
In the case of `COc1ccccc1Cn1cnc2sc3c(c2c1=O)CCC(NC1CCc2ccccc21)C3` (stereo not shown) [Compound 106], the IC50 is listed as 16.3 µM.
In the case of `O=c1c2c3c(sc2ncn1Cc1cccc2cccnc12)CC(NC1CCCc2ccccc21)CC3` (stereo not shown) [Compound 107], the IC50 is listed as 5.49 µM.
For `COc1ccc(CNCCc2sc3ncn(Cc4c(OC)ccc5ccccc45)c(=O)c3c2C)cc1` [Compound 108], the IC50 is listed as 3.36 µM.
In the case of `COc1ccc2ccccc2c1Cn1cnc2sc(CCNCc3cccnc3)c(C)c2c1=O` [Compound 109], the IC50 is given as 2.15 µM.
